Experimental data reported in patent US5665721A, “Heterocyclic substituted cyclopentane compounds” (Abbott Laboratories, priority 1995, dated 1997).

How the values were obtained:
adenosine kinase [1] = target: adenosine kinase (Homo sapiens, UniProt P55263); experiment: In vitro inhibition of adenosine kinase activity; type: biochemical
From the text: The adenosine kinase to be inhibited can be located in vitro, in situ or in vivo. Where the adenosine kinase is located in vitro, adenosine kinase is contacted with the inhibitor compound, typically by adding the compound to an aqueous solution containing the enzyme, radiolabeled substrate adenosine, magnesium chloride and ATP. The enzyme can exist in intact cells or in isolated subcellular fractions containing the enzyme. The enzyme is then maintained in the presence of the inhibitor for a period of time and under suitable physiological conditions. Means for determining maintained times are well known in the art and depend inter alia on the concentrations of enzyme and the physiological conditions. Suitable physiological conditions are those necessary to maintain adenosine kinase viability and include temperature, acidity, tonicity and the like. Inhibition of adenosine kinase can be performed, by example, according to standard procedures well known in the art (Yamada et at., Comp. Biochem. Physiol. 1982, 71B: 367-372).
In vitro adenosine kinase activity can be measured using any of the standard procedures well known in the art. By way of example, cells containing adenosine kinase, such as IMR-32 human neuroblastoma cells, are cultured in the presence and absence of an inhibitor. Inhibition is measured as the ability to inhibit phosphorylation of endogenous or externally applied ^14 C-adenosine by these cells. The cells can be intact or broken. The specificity of adenosine kinase inhibitory activity is determined by studying the effects of inhibitors on adenosine A1 and A2a receptor binding, adenosine deaminase activity and adenosine transport.
Numerous inhibitor compounds of the present invention were tested in vitro and found to inhibit adenosine kinase activity. The results of some representative studies are shown below in Tables 1 and 2.

adenosine kinase [2] = conditions: literature; cited from earlier work

Sequence of adenosine kinase (Homo sapiens, UniProt P55263) (P55263 whole entry, species assumed): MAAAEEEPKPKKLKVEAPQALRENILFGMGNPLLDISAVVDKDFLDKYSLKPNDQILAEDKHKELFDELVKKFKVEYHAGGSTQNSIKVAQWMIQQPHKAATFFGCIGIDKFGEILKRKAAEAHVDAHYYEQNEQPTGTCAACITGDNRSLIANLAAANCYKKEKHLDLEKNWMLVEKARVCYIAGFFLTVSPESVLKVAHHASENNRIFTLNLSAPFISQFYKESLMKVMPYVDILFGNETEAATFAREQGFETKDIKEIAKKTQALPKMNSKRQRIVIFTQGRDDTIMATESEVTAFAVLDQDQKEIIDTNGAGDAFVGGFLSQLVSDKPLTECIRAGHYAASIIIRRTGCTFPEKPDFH

Row | SMILES | IC50 (adenosine kinase [1]; Table 2, in vitro) [nM] | IC50 (adenosine kinase [1]; Table 1, in vitro) [nM] | further results
1 | N[C@@H]1C=C[C@H](n2cc(I)c3c(Cl)ncnc32)C1 | – | – | IC50 (adenosine kinase [1]; Table 1, in vitro, single structure): 2.5 nM
2 | NC[C@H]1O[C@@H](n2cnc3c(N)ncnc32)[C@H](O)[C@@H]1O [5'-amino,5'-deoxyadenosine] | – | – | reported to inhibit adenosine kinase (in words) (adenosine kinase [2]): most potent
3 | O[C@@H]1[C@H](O)[C@@H](O)C[C@H]1n1cc(C#Cc2ccccc2)c2c(Cl)ncnc21 [drawing 13 (R5=Cl, R6=PhCC), N7-((1'R,2'S,3'R,4'S)-2',3',4'-trihydroxycyclopentyl)-4-chloro-5-phenylacetylenyl-pyrrolopyrimidine] | – | 100 | –
4 | Nc1ncnc2c1c(I)cn2[C@@H]1C[C@H](O)[C@@H](O)[C@H]1O [drawing 13 (R5=NH2, R6=I), N7-((1'R,2'S,3'R,4'S)-2',3',4'-trihydroxycyclopentyl)-4-amino-5-iodo-pyrrolopyrimidine] | – | 13 | –
5 | O[C@@H]1[C@H](O)[C@@H](O)C[C@H]1n1cc(C#Cc2ccccc2)c2c(C#Cc3ccccc3)ncnc21 [drawing 13 (R5=PhCC, R6=PhCC), N7-((1'R,2'S,3'R,4'S)-2',3',4'-trihydroxycyclopentyl)-4,5-bis-phenylacetylenyl-pyrrolopyrimidine] | – | 15 | –
6 | CC(C)(C)OC(=O)N(C(=O)OC(C)(C)C)[C@H]1C[C@@H](n2cc(I)c3c(Cl)ncnc32)[C@H](O)[C@@H]1O [drawing 14 (R4=Boc2N, R5=Cl, R6=I), N7-((1'R,2'S,3'R,4'S)-2',3'-dihydroxy-4'-(bis-t-butoxycarbonylamino)-cyclopentyl)-4-chloro-5-iodo pyrrolopyrimidine] | – | > 1000 | –
7 | CC(C)(C)OC(=O)N[C@H]1C[C@@H](n2cc(I)c3c(N)ncnc32)[C@H](O)[C@@H]1O [drawing 14 (R4=NHBoc, R5=NH2, R6=I), N7-((1'R,2'S,3'R,4'S)-2',3'-dihydroxy-4'-(t-butoxycarbonylamino)-cyclopentyl)-4-amino-5-iodo-pyrrolopyrimidine] | – | 15 | –
8 | CC(=O)O[C@@H]1[C@H](OC(C)=O)[C@@H](OC(C)=O)C[C@H]1n1cc(-c2ccccc2)c2c(Cl)ncnc21 [drawing 16 (R5=Cl, R6=Ph), N7-((1'R,2'S,3'R,4'S)-2',3',4'-triacetoxycyclopentyl)-4-chloro-5-phenyl-pyrrolopyrimidine] | > 100000 | – | –
9 | CC(=O)O[C@@H]1[C@H](OC(C)=O)[C@@H](OC(C)=O)C[C@H]1n1cc(C#Cc2ccccc2)c2c(C#Cc3ccccc3)ncnc21 [drawing 16 (R5=PhCC, R6=PhCC), N7-((1'R,2'S,3'R,4'S)-2',3',4'-triacetoxycyclopentyl)-4,5-bis-phenylacetylenyl-pyrrolopyrimidine] | > 10000 | – | –
10 | O=C(N[C@H]1C[C@@H](n2cc(I)c3c(Cl)ncnc32)[C@H](O)[C@@H]1O)C(F)(F)F [drawing 18 (R5=Cl, R=CF3CO), N7-((1'R,2'S,3'R,4'S)-2',3'-dihydroxy-4'-(trifluoroacetyl)amino-cyclopentyl)-4-chloro-5-iodo-pyrrolopyrimidine] | 110 | – | –
11 | CC(=O)N[C@H]1C[C@@H](n2cc(I)c3c(N)ncnc32)[C@H](O)[C@@H]1O [drawing 18 (R5=NH2, R=CH3CO), N7-((1'R,2'S,3'R,4'S)-2',3'-dihydroxy-4'-(acetyl)amino-cyclopentyl)-4-amino-5-iodo-pyrrolopyrimidine] | 160 | – | –
12 | CC(C)(C)OC(=O)N[C@H]1C[C@@H](n2cc(I)c3c(N)ncnc32)[C@H](O)[C@@H]1O [drawing 18 (R5=NH2, R=NHBoc), N7-((1'R,2'S,3'R,4'S)-2',3'-dihydroxy-4'-(t-butoxycarbonylamino)-cyclopentyl)-4-amino-5-iodo-pyrrolopyrimidine] | 150 | – | –
13 | N[C@H]1C[C@@H](n2cc(I)c3c(Cl)ncnc32)[C@@H]2OC(=O)O[C@@H]21 [drawing 21 (R=H, R5=Cl), N7-((1'R,2'S,3'R,4'S)-2',3'--O-(2"-oxo-1",3"-dioxalyl)-4'-amino-cyclopentyl)-4-chloro-5-iodo-pyrrolopyrimidine] | 2.5 | – | –

The next lines start with results.

Row | IC50 (adenosine kinase [1]; Table 2, in vitro) [nM] | IC50 (adenosine kinase [1]; Table 1, in vitro) [nM] | SMILES | further results
14 | 5 | – | O=C(N[C@H]1C[C@@H](n2cc(I)c3c(Cl)ncnc32)[C@H](O)[C@@H]1O)c1cccnc1 | –
15 | – | 90 | O[C@@H]1[C@H](O)[C@@H](O)C[C@H]1n1cc(Cl)c2c(Cl)ncnc21 [drawing 13 (R5=Cl, R6=Cl), N7-((1'R,2'S,3'R,4'S)-2',3',4'-trihydroxycyclopentyl)-4,5-dichloro-pyrrolopyrimidine] | –
16 | – | 10 | O[C@@H]1[C@H](O)[C@@H](O)C[C@H]1n1cc(I)c2c(Cl)ncnc21 [drawing 13 (R5=Cl, R6=I), N7-((1'R,2'S,3'R,4'S)-2',3',4'-trihydroxycyclopentyl)-4-chloro-5-iodo-pyrrolopyrimidine] | –
17 | – | 45 | O[C@@H]1[C@H](O)[C@@H](O)C[C@H]1n1cc(-c2ccccc2)c2c(Cl)ncnc21 [drawing 13 (R5=Cl, R6=Ph), N7-((1'R,2'S,3'R,4'S)-2',3',4'-trihydroxycyclopentyl)-4-chloro-5-phenyl-pyrrolopyrimidine] | –
18 | – | 200 | Nc1ncnc2c1c(-c1ccccc1)cn2[C@@H]1C[C@H](O)[C@@H](O)[C@H]1O [drawing 13 (R5=NH2, R6=Ph), N7-((1'R,2'S,3'R,4'S)-2',3',4'-trihydroxycyclopentyl)-4-amino-5-phenyl-pyrrolopyrimidine] | –
19 | – | 230 | Nc1ncnc2c1c(C#Cc1ccccc1)cn2[C@@H]1C[C@H](O)[C@@H](O)[C@H]1O [drawing 13 (R5=NH2, R6=PhCC), N7-((1'R,2'S,3'R,4'S)-2',3',4'-trihydroxycyclopentyl)-4-amino-5-phenylacetylenyl-pyrrolopyrimidine] | –
20 | – | 300 | Nc1ncnc2c1c(CCc1ccccc1)cn2[C@@H]1C[C@H](O)[C@@H](O)[C@H]1O [drawing 13 (R5=NH2, R6=PhCH2CH2), N7-((1'R,2'S,3'R,4'S)-2',3',4'-trihydroxycyclopentyl)-4-amino-5-((2phenyl)ethyl)-pyrrolopyrimidine] | –
21 | – | 100 | O[C@@H]1[C@H](O)[C@@H](O)C[C@H]1n1cc(I)c2c(Nc3ccccc3)ncnc21 [drawing 13 (R5=NHPh, R6=I), N7-((1'R,2'S,3'R,4'S)-2',3',4'-trihydroxycyclopentyl)-4-(phenyl)amino-5-iodo-pyrrolopyrimidine] | –
22 | – | 3 | O[C@@H]1[C@H](O)[C@@H](O)C[C@H]1n1cc(-c2ccccc2)c2c(Nc3ccccc3)ncnc21 [drawing 13 (R5=NHPh, R6=Ph), N7-((1'R,2'S,3'R,4'S)-2',3',4'-trihydroxycyclopentyl)-4-(phenyl)amino-5-phenyl-pyrrolopyrimidine] | –
23 | – | 20 | CN(C)[C@H]1C[C@@H](n2cc(I)c3c(Cl)ncnc32)[C@H](O)[C@@H]1O [drawing 14 (R4=(CH3)2N, R5=Cl, R6=I), N7-((1'R,2'S,3'R,4'S)-2',3'-dihydroxy-4'-(dimethyl)amino-cyclopentyl)-4-chloro-5-iodo-pyrrolopyrimidine] | –
24 | – | 300 | CN[C@H]1C[C@@H](n2cc(C)c3c(Cl)ncnc32)[C@H](O)[C@@H]1O [drawing 14 (R4=CH3NH, R5=Cl, R6=CH3), N7-((1'R,2'S,3'R,4'S)-2',3'-dihydroxy-4'-(methyl)amino-cyclopentyl)-4-chloro-5-methyl-pyrrolopyrimidine] | –
25 | – | 0.035 | N[C@H]1C[C@@H](n2cc(I)c3c(Cl)ncnc32)[C@H](O)[C@@H]1O [drawing 14 (R4=H2N, R5=Cl, R6=I), N7-((1'R,2'S,3'R,4'S)-2',3'-dihydroxy-4'-amino-cyclopentyl)-4-chloro-5-iodo-pyrrolopyrimidine] | –
26 | – | 0.08 | Nc1ncnc2c1c(I)cn2[C@@H]1C[C@H](N)[C@@H](O)[C@H]1O [drawing 14 (R4=H2N, R5=NH2, R6=I), N7-((1'R,2'S,3'R,4'S)-2',3'-dihydroxy-4'-amino-cyclopentyl)-4-amino-5-iodo-pyrrolopyrimidine] | –
27 | > 10000 | – | CC(=O)N[C@H]1C[C@@H](n2cc(I)c3c(Cl)ncnc32)[C@H](OC(C)=O)[C@@H]1OC(C)=O [drawing 17 (R5=Cl)] | –
28 | 350 | – | CC(=O)N[C@H]1C[C@@H](n2cc(I)c3c(Cl)ncnc32)[C@H](O)[C@@H]1O [drawing 18 (R5=Cl, R=CH3CO), N7-((1'R,2'S,3'R,4'S)-2',3'-dihydroxy-4'-(acetyl)amino-cyclopentyl)-4-chloro-5-iodo-pyrrolopyrimidine] | –
29 | 200 | – | O=C(N[C@H]1C[C@@H](n2cc(I)c3c(O)ncnc32)[C@H](O)[C@@H]1O)C(F)(F)F [drawing 18 (R5=OH, R=CF3CO), N7-((1'R,2'S,3'R,4'S)-2',3'-dihydroxy-4'-(trifluoroacetyl)amino-cyclopentyl)-4-hydroxy-5-iodo-pyrrolopyrimidine] | –
30 | 6300 | – | CC(=O)N[C@H]1C[C@@H](n2cc(I)c3c(Cl)ncnc32)[C@@H]2OC(=O)O[C@@H]21 [drawing 21 (R=CH3CO, R5=Cl), N7-((1'R,2'S,3'R,4'S)-2',3'--O-(2"-oxo-1",3"-dioxalyl)-4'-(acetyl)amino-cyclopentyl)-4-chloro-5-iodo-pyrrolopyrimidine] | –
31 | 4000 | – | CC(=O)N[C@H]1C[C@@H](n2cc(I)c3c(O)ncnc32)[C@@H]2OC(=O)O[C@@H]21 [drawing 21 (R=CH3CO, R5=OH), N7-((1'R,2'S,3'R,4'S)-2',3'--O-(2"-oxo-1",3"-dioxalyl)-4'-(acetyl)amino-cyclopentyl)-4-hydroxy-5-iodo-pyrrolopyrimidine] | –
